Results taken from ChEMBL document CHEMBL1201862, “PubChem BioAssay data set” (2004).
Active and inactive are the calls of the source.

How the values were obtained:
BJ [1] = test: cytotoxicity toward BJ-TERT fibroblasts, dose response, cell-based, RAS-independent, luminescence (AID 1933); assay type: functional; settings: Homo sapiens
[2] = biological target: T1, Luciferin 4-monooxygenase (Photinus pyralis, UniProt P08659); test: Counter Screen for Luciferase-based Assay Positives. [Related pubchem assays: 620, 618, 411 ]
BJ [3] = test: cells; assay type: functional, cell-based; settings: Homo sapiens
[4] = biological target: T1, Luciferin 4-monooxygenase; test: firefly luciferase enzyme inhibitors, dose response, biochemical, luminescence (AID 1891)
[5] = Luminescence Cell-Based Dose Confirmation HTS to Identify Inhibitors of Platelet Dense Granule Release. [Related pubchem assays: 1663 (Primary HTS), 1678 (Summary of Project)]; assay type: functional
HT-1080 = test: cytotoxicity in HT1080 fibrosarcoma cells, cell-based, fluorescence readout (AID 620); assay type: functional; settings: Homo sapiens
BJ [6] = test: cytotoxicity toward BJ-TERT-LT-ST fibroblasts, dose response, cell-based, RAS-independent, luminescence (AID 1935); assay type: functional; settings: Homo sapiens;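 further: BJ fibroblasts immortalized with TERT plus LT and ST oncogenes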
[7] = cytotoxicity toward DRD oncogenic fibroblasts, dose response, cell-based, non-viral oncogenic, luminescence (AID 1934); assay type: functional; settings: Homo sapiens
[8] = biological target: Cyclin-dependent kinase 5/CDK5 activator 1 (Homo sapiens, UniProt Q00535); test: CDK5/p35 kinase inhibitors, dose response, biochemical, cherry-picked samples, set 2 (AID 504545)
BJ [9] = test: cytotoxicity toward Ras-transformed BJeLR fibroblasts, dose response, cell-based, alamar blue fluorescence, cherrypicked samples (AID 2631); assay type: functional; settings: Homo sapiens;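 further: confirmatory dose-response assay in RAS-dependent BJ fibroblasts engineered with TERT, LT and ST, with cytotoxicity read by fluorescence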
NS3 = NS3 (Hepatitis C virus, UniProt A3EZJ3); test: PubChem AID 2173; design: species or system Hepacivirus hominis
fMet-Leu-Phe receptor = biological target: T2, fMet-Leu-Phe receptor (Homo sapiens, UniProt P21462); test: FPR ligands, dose response (AID 519); assay type: functional
T2 sequence (P21462 whole entry): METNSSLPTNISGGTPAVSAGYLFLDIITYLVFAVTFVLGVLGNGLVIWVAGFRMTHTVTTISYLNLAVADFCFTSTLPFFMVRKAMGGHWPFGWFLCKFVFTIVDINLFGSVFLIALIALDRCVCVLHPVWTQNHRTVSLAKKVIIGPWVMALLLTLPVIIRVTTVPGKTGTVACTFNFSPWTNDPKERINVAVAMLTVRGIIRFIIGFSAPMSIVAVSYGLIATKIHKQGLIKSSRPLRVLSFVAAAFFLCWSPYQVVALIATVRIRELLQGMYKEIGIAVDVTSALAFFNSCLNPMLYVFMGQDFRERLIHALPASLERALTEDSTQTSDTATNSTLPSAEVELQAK

Aminopeptidase N = biological target: T3, Aminopeptidase N (Plasmodium falciparum FcB1/Columbia, UniProt O96935); test: P. falciparum M1AAP inhibitors, biochemical, fluorogenic H-Leu-NHMec substrate, 1536-well (AID 1445); design: species or system Plasmodium falciparum 3D7, 3D7
T3 sequence (O96935 whole entry): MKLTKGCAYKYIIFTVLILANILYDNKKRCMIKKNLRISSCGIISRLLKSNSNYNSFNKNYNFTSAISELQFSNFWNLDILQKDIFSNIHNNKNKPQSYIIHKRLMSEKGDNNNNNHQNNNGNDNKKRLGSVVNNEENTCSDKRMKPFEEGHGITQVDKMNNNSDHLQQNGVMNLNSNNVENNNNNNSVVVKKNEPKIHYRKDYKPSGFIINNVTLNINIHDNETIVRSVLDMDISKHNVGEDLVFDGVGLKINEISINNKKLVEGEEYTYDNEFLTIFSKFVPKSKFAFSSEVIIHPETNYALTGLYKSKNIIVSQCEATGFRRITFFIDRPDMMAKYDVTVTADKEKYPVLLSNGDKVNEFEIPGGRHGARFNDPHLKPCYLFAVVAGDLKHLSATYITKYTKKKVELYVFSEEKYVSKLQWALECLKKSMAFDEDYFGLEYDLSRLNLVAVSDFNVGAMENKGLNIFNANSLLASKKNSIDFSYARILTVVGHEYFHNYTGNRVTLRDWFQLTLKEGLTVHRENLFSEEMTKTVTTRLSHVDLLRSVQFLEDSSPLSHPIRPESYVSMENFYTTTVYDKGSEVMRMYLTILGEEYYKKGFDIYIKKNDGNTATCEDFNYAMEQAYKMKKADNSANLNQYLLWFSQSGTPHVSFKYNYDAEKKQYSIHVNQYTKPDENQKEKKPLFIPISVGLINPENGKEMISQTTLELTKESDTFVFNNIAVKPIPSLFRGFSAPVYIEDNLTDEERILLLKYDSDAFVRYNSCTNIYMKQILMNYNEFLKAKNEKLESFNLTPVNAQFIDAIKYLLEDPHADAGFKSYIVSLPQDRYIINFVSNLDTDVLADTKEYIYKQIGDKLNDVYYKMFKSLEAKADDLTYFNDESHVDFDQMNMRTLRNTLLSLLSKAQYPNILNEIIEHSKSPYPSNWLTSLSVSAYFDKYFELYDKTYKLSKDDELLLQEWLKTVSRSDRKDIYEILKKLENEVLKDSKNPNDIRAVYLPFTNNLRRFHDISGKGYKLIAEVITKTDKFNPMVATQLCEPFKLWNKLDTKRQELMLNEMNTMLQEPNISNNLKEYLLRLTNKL

[10] = HIV-1 Env-mediated cell fusion inhibitors, dose response, CCR5-tropic Env (AID 2279); assay type: functional
[11] = biological target: T4, Short transient receptor potential channel 4 (Mus musculus, UniProt Q9QUQ5); test: mouse TRPC4 channel inhibitors, dose response, cell-based, HEK293 TRPC4/mu-opioid, Fluo-4 calcium (AID 434942); assay type: functional;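 further: potency of inhibitors blocking the TRPC4 calcium response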
T4 sequence (Q9QUQ5 whole entry): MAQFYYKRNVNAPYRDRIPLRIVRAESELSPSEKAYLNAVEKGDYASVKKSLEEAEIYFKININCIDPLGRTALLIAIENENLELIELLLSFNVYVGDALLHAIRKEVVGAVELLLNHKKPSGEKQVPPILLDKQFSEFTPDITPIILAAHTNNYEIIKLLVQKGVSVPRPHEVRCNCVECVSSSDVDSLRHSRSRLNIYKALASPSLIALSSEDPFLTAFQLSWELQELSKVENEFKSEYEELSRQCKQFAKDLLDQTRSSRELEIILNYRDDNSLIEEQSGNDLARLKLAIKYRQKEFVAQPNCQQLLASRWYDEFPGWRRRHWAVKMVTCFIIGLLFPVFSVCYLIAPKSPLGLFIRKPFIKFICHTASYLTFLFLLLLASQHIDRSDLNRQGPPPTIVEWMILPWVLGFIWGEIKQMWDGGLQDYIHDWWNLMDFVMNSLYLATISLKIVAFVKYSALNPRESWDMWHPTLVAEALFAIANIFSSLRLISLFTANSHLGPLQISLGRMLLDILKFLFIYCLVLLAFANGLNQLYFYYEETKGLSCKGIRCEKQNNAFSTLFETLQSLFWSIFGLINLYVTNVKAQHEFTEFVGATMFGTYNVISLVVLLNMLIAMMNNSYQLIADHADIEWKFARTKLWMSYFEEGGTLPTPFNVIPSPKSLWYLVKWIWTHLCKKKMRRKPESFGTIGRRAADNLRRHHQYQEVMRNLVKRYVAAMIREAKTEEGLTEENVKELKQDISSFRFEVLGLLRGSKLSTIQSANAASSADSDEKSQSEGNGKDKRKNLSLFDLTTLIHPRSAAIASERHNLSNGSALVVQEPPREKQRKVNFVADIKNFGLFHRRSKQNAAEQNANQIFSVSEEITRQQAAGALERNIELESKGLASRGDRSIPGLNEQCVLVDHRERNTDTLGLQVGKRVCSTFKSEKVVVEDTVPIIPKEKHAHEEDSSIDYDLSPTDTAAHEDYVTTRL

HEK293 = test: Fluorescence-based counterscreen for potentiators or agonists of NPY-Y2: cell-based high-throughput dose response assay to identify inhibitors of cyclic nucleotide gated ion channel (CNGC) activity. In this assay, the parental HEK293 cell line transfected with a cyclic-nucleotide gated ion channel (CNGC)-based cAMP sensor is used to measure inhibition of isoproterenol-induced CNGC activity by test compound.; assay type: functional; settings: Homo sapiens
[12] = biological target: T5, Neuropeptide Y receptor type 2 (Homo sapiens, UniProt P49146); test: Fluorescence-based cell-based high-throughput dose response assay for agonists of NPY-Y2. [Related pubchem assays: 1703 (Screening assay (CNGC inhibitors).), 1359 (Screening assay (NPY-Y2 potentiators or agonists).), 1304 (Screening assay (NPY-Y1 potentiators or agonists).), 1710 (Screening assay (NPY-Y2 agonists).), 1791 (Summary AID.)]; assay type: functional
T5 sequence (P49146 whole entry): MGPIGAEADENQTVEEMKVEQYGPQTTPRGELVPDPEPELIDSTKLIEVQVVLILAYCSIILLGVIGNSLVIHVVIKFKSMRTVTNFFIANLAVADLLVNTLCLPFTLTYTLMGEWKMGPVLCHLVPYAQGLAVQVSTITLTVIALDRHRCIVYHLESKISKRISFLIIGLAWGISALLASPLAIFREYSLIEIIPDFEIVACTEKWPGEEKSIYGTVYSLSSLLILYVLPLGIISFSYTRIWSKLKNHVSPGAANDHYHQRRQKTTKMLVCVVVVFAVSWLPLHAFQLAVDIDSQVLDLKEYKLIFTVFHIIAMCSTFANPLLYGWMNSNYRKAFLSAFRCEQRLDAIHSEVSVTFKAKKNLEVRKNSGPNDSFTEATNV

[13] = biological target: T6, Neuropeptide Y receptor type 1 (Homo sapiens, UniProt P25929); test: Fluorescence-based counterscreen for agonists of NPY-Y2: cell-based high-throughput dose response assay for agonists of NPY-Y1.; assay type: functional
T6 sequence (P25929 whole entry): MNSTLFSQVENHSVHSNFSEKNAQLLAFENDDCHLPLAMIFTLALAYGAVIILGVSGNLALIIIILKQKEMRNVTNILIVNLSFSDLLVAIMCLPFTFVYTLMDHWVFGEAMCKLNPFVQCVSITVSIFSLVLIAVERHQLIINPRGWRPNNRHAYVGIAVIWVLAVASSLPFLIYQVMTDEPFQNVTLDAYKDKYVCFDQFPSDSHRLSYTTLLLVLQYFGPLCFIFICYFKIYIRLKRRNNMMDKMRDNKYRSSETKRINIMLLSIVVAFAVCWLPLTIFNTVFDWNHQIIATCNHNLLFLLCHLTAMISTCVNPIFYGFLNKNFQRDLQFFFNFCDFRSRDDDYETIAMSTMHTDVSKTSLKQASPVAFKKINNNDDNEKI

[14] = A Cell Based Secondary Assay To Explore Cytotoxicity of Compounds that Sensitize Mycobacterium Tuberculosis to Beta-Lactam Antibiotics.; assay type: functional
Staphylococcus aureus = test: Inhibitors of Bacterial Quorum Sensing Structure Activity Relationship (SAR) Analysis: Dose Response Assay. [Related pubchem assays: 700, 527 ]; assay type: functional, organism-based
Aspartyl aminopeptidase = biological target: T7, Aspartyl aminopeptidase (Plasmodium falciparum 3D7, UniProt Q8I2J3)
T7 sequence (Q8I2J3 whole entry): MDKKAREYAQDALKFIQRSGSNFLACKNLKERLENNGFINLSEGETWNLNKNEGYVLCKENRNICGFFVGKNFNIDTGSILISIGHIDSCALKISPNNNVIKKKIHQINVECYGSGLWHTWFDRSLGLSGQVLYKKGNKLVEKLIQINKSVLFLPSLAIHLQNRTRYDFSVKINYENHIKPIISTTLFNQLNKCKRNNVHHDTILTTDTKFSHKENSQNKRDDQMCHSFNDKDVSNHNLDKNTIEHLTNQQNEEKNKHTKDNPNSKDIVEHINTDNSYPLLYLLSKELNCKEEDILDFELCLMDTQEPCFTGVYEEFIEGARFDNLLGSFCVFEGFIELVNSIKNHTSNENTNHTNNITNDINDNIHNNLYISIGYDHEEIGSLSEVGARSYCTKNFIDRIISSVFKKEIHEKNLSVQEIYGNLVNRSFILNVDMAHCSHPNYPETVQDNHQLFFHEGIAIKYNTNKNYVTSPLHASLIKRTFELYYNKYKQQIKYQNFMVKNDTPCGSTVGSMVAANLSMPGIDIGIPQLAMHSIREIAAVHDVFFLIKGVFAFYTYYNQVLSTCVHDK

Procathepsin L = Procathepsin L (Homo sapiens, UniProt P07711)
Sequence of Procathepsin L (P07711 whole entry): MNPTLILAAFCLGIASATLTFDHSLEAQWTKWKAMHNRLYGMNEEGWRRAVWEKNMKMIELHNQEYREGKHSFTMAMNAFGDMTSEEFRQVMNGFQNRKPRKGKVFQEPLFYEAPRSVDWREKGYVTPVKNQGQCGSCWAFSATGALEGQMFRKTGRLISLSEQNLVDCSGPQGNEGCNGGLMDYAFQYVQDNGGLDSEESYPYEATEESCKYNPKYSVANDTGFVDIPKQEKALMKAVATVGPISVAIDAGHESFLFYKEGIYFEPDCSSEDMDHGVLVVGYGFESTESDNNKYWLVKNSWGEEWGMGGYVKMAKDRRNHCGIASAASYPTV

T1 sequence (P08659 whole entry): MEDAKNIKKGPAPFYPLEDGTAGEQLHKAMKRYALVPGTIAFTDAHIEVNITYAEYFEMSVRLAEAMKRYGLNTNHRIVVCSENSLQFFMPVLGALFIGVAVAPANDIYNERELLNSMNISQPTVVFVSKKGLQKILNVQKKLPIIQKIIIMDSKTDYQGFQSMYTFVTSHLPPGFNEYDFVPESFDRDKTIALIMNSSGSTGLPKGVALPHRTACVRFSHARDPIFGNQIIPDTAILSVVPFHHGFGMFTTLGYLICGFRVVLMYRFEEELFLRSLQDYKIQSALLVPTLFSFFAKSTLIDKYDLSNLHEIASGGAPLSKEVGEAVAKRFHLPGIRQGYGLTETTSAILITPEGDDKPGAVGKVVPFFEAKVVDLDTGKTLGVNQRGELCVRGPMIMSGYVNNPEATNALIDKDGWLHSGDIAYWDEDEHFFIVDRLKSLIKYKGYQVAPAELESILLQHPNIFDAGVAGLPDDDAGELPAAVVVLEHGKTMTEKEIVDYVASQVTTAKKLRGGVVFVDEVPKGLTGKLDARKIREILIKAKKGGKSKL
Sequence of NS3 (A3EZJ3 whole entry): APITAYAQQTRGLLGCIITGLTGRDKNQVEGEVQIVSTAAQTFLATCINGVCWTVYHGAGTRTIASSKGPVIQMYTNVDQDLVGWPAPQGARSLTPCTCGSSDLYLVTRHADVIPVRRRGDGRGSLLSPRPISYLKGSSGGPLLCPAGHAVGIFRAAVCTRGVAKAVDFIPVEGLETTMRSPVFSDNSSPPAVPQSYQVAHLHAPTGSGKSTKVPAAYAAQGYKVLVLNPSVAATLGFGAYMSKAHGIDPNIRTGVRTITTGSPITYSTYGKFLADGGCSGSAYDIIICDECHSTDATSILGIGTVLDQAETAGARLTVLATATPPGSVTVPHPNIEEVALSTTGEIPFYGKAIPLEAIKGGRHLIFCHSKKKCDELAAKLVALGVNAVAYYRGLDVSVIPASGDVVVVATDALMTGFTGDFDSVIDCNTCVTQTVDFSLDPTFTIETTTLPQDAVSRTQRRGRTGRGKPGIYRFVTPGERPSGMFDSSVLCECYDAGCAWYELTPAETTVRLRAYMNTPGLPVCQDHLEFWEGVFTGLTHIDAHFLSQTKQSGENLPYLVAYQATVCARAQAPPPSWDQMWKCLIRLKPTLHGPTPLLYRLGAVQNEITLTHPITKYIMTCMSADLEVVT
Sequence of Cyclin-dependent kinase 5/CDK5 activator 1 (Q00535 whole entry): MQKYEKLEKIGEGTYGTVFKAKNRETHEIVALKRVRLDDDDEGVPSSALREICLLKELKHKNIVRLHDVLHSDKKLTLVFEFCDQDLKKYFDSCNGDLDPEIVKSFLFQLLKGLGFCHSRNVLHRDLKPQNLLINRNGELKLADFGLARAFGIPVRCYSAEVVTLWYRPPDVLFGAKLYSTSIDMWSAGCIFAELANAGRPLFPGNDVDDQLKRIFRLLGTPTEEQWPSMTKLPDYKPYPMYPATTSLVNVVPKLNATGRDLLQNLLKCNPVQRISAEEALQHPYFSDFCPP
Sequence of Cyclin-dependent kinase 5/CDK5 activator 1 (Q15078 whole entry, further chain): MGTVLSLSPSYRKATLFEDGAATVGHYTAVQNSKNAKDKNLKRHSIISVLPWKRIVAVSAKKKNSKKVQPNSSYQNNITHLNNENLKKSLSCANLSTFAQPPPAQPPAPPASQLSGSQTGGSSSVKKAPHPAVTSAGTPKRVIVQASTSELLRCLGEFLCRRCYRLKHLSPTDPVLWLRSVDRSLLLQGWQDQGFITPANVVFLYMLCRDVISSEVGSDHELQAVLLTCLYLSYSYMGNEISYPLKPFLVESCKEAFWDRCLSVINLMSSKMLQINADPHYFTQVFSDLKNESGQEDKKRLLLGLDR

## COc1ccc(-c2cc3nc(C)cc(N)n3n2)cc1
BJ [1]
  EC50: 3.85 µM (inconclusive)
[2]
  EC50: 2.85 µM (active)
BJ [3]
  EC50: 4.45 µM (active)
[4]
  EC50: 0.513 µM (active)
[5]
  EC50: 0.621 µM (active)
HT-1080
  EC50: > 50 µM (not active)
BJ [6]
  EC50: 17.6 µM (active)
[7]
  EC50: 6.14 µM (active)
[8]
  AC50: 17.5 µM (active)
BJ [9]
  EC50: > 133 µM (inactive)

## CCOc1ccc(C(=O)C2=C(O)C(=O)N(c3nc(C)c(C)s3)C2c2ccco2)cc1 (configuration not stated)
NS3
  IC50: 6.35 µM (active)
fMet-Leu-Phe receptor
  Ki: 57.7 µM (inactive)

## COc1cc(/C=C2\SC(=O)N(c3ccccc3Cl)C2=O)cc([N+](=O)[O-])c1O
Aminopeptidase N
  IC50: 65.8 µM (active)
[10]
  IC50: 42.5 µM (active)
[11]
  EC50: 1.06 µM (active)

## NC(=O)c1ccc2nc(NC(=O)c3ccc(N)cc3)sc2c1
HEK293
  EC50: > 35.4 µM (not active)
[12]
  EC50: > 35.4 µM (not active)
[13]
  EC50: > 35.4 µM (not active)

## O=C1/C(=C/c2ccncc2)CCc2ccccc21
[14]
  CC50: 35.4 µM (active)

## CCc1oc2ccccc2c1C(=O)c1ccc(O)cc1 [BENZARONE]
Staphylococcus aureus
  IC50: 1.29 µM (active)

## O=C(O)c1ccc(O)c(O)c1 [PROTOCATECHUIC ACID]
Aspartyl aminopeptidase
  IC50: 0.479 µM (active)
Procathepsin L
  IC50: > 59.6 µM (not active)
